Experimental data from ChEMBL document CHEMBL1158810, “Efficiency of foam fractionation for the enrichment of nonpolar compounds from aqueous extracts of plant materials” (J Nat Prod, 2005).

Test: Octanol-water partition coefficient, log POW of the compound
Format: physicochemical

SMILES | logP (read-out: logP) | logP
CC(C)=CCC1=C(O)C(C(=O)C(C)C)=C(O)[C@](O)(CC=C(C)C)C1=O | 2.92 | –
CC(C)=CCC1=C(O)C(C(=O)CC(C)C)=C(O)[C@](O)(CC=C(C)C)C1=O | 3.01 | –
Oc1cc(O)c2c(c1)O[C@H](c1ccc(O)c(O)c1)[C@H](O)C2 [(-)-EPICATECHIN] | 0.67 | –
CC1=C(/C=C/C(C)=C/C=C/C(C)=C/C=C/C=C(C)/C=C/C=C(C)/C=C/C2=C(C)CCCC2(C)C)C(C)(C)CCC1 [BETA CAROTENE] | 4.19 | –
O=C(/C=C/c1ccc(O)cc1)CC(=O)/C=C/c1ccc(O)cc1 [BISDEMETHOXYCURCUMIN] | 0.85 | –
Oc1cc(O)c2c(c1)O[C@H](c1ccc(O)c(O)c1)[C@@H](O)C2 [CIANIDANOL] | 0.53 | –
COc1cc(/C=C/C(=O)CC(=O)/C=C/c2ccc(O)c(OC)c2)ccc1O [CURCUMIN] | – | 1.15
COc1cc(/C=C/C(O)=C/C(=O)/C=C/c2ccc(O)cc2)ccc1O [DEMETHOXYCURCUMIN] | 1 | –
O=C(O[C@@H]1Cc2c(O)cc(O)cc2O[C@@H]1c1ccc(O)c(O)c1)c1cc(O)c(O)c(O)c1 [EPICATECHIN GALLATE] | 0.07 | –
Oc1cc(O)c2c(c1)O[C@H](c1cc(O)c(O)c(O)c1)[C@H](O)C2 [EPIGALLOCATECHIN] | 0.13 | –
O=C(O[C@@H]1Cc2c(O)cc(O)cc2O[C@@H]1c1cc(O)c(O)c(O)c1)c1cc(O)c(O)c(O)c1 [EPIGALOCATECHIN GALLATE] | 0.09 | –
O=C(O[C@@H]1Cc2c(O)cc(O)cc2O[C@H]1c1cc(O)c(O)c(O)c1)c1cc(O)c(O)c(O)c1 [GALLOCATECHIN GALLATE] | 0.12 | –
COc1ccc([C@@H]2CC(=O)c3c(O)cc(O[C@@H]4O[C@H](CO[C@@H]5O[C@@H](C)[C@H](O)[C@@H](O)[C@H]5O)[C@@H](O)[C@H](O)[C@H]4O)cc3O2)cc1O [HESPERIDIN] | -0.21 | –
CC1=C[C@H](O)CC(C)(C)[C@H]1/C=C/C(C)=C/C=C/C(C)=C/C=C/C=C(C)/C=C/C=C(C)/C=C/C1=C(C)C[C@@H](O)CC1(C)C [LUTEIN] | 3.89 | –
C[C@@H]1O[C@@H](O[C@H]2[C@H](Oc3cc(O)c4c(c3)O[C@H](c3ccc(O)cc3)CC4=O)O[C@H](CO)[C@@H](O)[C@@H]2O)[C@H](O)[C@H](O)[C@H]1O [NARINGIN] | -0.15 | –
